# Data reported in ChEMBL document CHEMBL2021830, “Chlorinated englerins with selective inhibition of renal cancer cell growth” (2012).
# Assays:
# Assay type in all cases: functional
# SN12C = assay: Growth inhibition of human SN12C cells after 48 hrs by SRB assay
# A498 = assay: Growth inhibition of human A498 cells after 48 hrs
# 786-0 = assay: Growth inhibition of human 786-0 cells after 48 hrs by SRB assay
# RXF 393 = assay: Growth inhibition of human RXF393 cells after 48 hrs by SRB assay
# TK-10 = assay: Growth inhibition of human TK10 cells after 48 hrs by SRB assay
# UO-31 = assay: Growth inhibition of human UO31 cells after 48 hrs
# CAKI-1 = assay: Growth inhibition of human CAKI-1 cells after 48 hrs by SRB assay
# ACHN = assay: Growth inhibition of human ACHN cells after 48 hrs by SRB assay
Compound,"GI50 (786-0; Homo sapiens, 786-0, 48 h) [nM]","GI50 (ACHN; Homo sapiens, ACHN, 48 h) [nM]","GI50 (SN12C; Homo sapiens, SN12C, 48 h) [nM]","GI50 (A498; Homo sapiens, A498, 48 h) [nM]","GI50 (RXF 393; Homo sapiens, RXF 393, 48 h) [nM]","GI50 (TK-10; Homo sapiens, TK-10, 48 h) [nM]","GI50 (UO-31; Homo sapiens, UO-31, 48 h) [nM]","GI50 (CAKI-1; Homo sapiens, CAKI-1, 48 h) [nM]",GI50 (SN12C) [nM],GI50 (A498) [nM],GI50 (786-0) [nM],GI50 (RXF 393) [nM],GI50 (TK-10) [nM],GI50 (UO-31) [nM],GI50 (CAKI-1) [nM],GI50 (ACHN) [nM]
"CC(C)[C@@]12C[C@@H](OC(=O)CO)[C@@](C)(O1)[C@@H]1CC[C@@H](C)[C@H]1[C@@H]2OC(=O)C(Cl)C(O)c1ccccc1 (single isomer, unassigned)",,,,,,,,,4700,660,11000,390,27000,1900,5000,1400
"CC(C)[C@@]12C[C@@H](OC(=O)CO)[C@@](C)(O1)[C@@H]1CC[C@@H](C)[C@H]1[C@@H]2OC(=O)C(Cl)C(O)c1ccccc1 (single isomer, unassigned; epimer 1)",,,,,510,17000,,,630,180,1700,,,250,460,320
"CC(C)[C@@]12C[C@@H](OC(=O)CO)[C@@](C)(O1)[C@@H]1CC[C@@H](C)[C@H]1[C@@H]2OC(=O)C(Cl)C(Cl)c1ccccc1 (single isomer, unassigned; epimer 2)",,,,,,,,,1000,67,,,25000,160,160,49

# More lines, main results first:
"GI50 (786-0; Homo sapiens, 786-0, 48 h) [nM]","GI50 (ACHN; Homo sapiens, ACHN, 48 h) [nM]",Compound,"GI50 (SN12C; Homo sapiens, SN12C, 48 h) [nM]","GI50 (A498; Homo sapiens, A498, 48 h) [nM]","GI50 (RXF 393; Homo sapiens, RXF 393, 48 h) [nM]","GI50 (TK-10; Homo sapiens, TK-10, 48 h) [nM]","GI50 (UO-31; Homo sapiens, UO-31, 48 h) [nM]","GI50 (CAKI-1; Homo sapiens, CAKI-1, 48 h) [nM]",GI50 (SN12C) [nM],GI50 (A498) [nM],GI50 (786-0) [nM],GI50 (RXF 393) [nM],GI50 (TK-10) [nM],GI50 (UO-31) [nM],GI50 (CAKI-1) [nM],GI50 (ACHN) [nM]
10000,41,CC(C)[C@@]12C[C@@H](OC(=O)CO)[C@@](C)(O1)[C@@H]1CC[C@@H](C)[C@H]1[C@@H]2OC(=O)/C(Cl)=C/c1ccccc1,560,28,59,21000,35,390,,,,,,,,
12000,,"CC(C)[C@@]12C[C@@H](OC(=O)CO)[C@@](C)(O1)[C@@H]1CC[C@@H](C)[C@H]1[C@@H]2OC(=O)C(Cl)C(Cl)c1ccccc1 (single isomer, unassigned; epimer 1)",930,,,18000,,,,140,,,,390,420,140
